The results in this text go back to patent US10030027B2, “Soluble guanylate cyclase stimulators” (MERCK SHARP & DOHME CORP., priority 2015, dated 2018).

Structures are written as SMILES.

The assay concerns the target sGC α1/β1 heterodimer (Homo sapiens (Human), UniProt Q02108+Q02153). Kind of assay: Cell-based sGC functional assay (cyclic GMP assay for sGC activator: CASA assay). As to conditions: CHO-K1/sGC cells; for Emax: CHO-K1, activity expressed as percentage of compound A (standard), read-out: % Activation; for EC50: inflection point, 4P fit, read-out: IP. The source says: Cell-Based sGC Functional Assay (Cyclic GMP Assay for sGC Activator: CASA Assay)
Soluble guanylate cyclase (sGC) is a heme-containing enzyme that converts GTP to secondary messenger cGMP. Increases in cGMP levels affect several physiological processes including vasorelaxation through multiple downstream pathways. […] Heme-dependent activators (HDAs) preferentially activate sGC containing a ferrous heme group. To determine the effect of sGC activators on enzyme activity, the CASA assay was developed to monitor the generation of cGMP in a cell line that stably expresses the heterodimeric sGC protein.
A CHO-K1 cell line stably expressing the sGC α1/β1 heterodimer was generated using a standard transfection protocol. CHO-K1 cells were transfected with plasmids pIREShyghsGCα1 and pIRESneo-hsGCβ1 simultaneously using FUGENE reagent. Clones that stably express both subunits were selected with hygromycin and neomycin for ˜2 weeks. Clone #7 was chosen for the assay and was designated CHO-K1/sGC. CHO-K1/sGC cells were maintained in F-K12 medium containing 10% heat-inactivated Fetal Bovine Serum (FBS), 100 μg/mL penicillin/streptomycin, 0.5 mg/mL hygromycin and 0.25 mg/mL G418. The cells were then cryopreserved in LN2. On the day of the assay, the cells were thawed and resuspended in EBSS Assay Buffer (Sigma, E3024) supplemented with 5 mM MgCl2, 10 mM HEPES (4-(2-hydroxyethyl)piperazine-1-ethanesulfonic acid) and 0.05% BSA (bovine serum albumin) (EAB) and cell density was then adjusted to 2.25×10^5/mL with EAB. IBMX (3-isobutyl-1-methylxanthin, 0.5 mM) was added to inhibit degradation of cGMP. Compounds were diluted from DMSO stock solutions and added to the assay at a final DMSO concentration of 2.5%. Cells were pre-incubated in the presence and absence of 1 μM of Diethylenetriamine/nitric oxide adduct (DETA-NO; Sigma, 17018) for 30 min at 25° C. Compounds are subsequently added and incubated for 1 hr at 37° C. At the end of the incubation period, the reaction was terminated and the cells were lysed with the detection reagents from Cisbio Kits. The level of intracellular cGMP was determined using an HTRF-based assay kit (CisBio, 62GM2PEC), which detects the displacement of a fluorescence labeled cGMP from its specific antibody. The cGMP produced by test compounds was directly compared to the maximum cGMP production (this value was set to equal 100% activation.) of the published sGC-HDA compound A:
(Example 1 in WO 2010/065275, published Jun. 10, 2010). The test compounds' activity were then expressed as a percentage of compound A, the standard in every experiment. This percent activation was calculated either in the presence or absence of DETA-NO which was then plotted. Inflection points (IP) and maximum fold induction was derived using Abase analysis software for 4P fit.

Chain of sGC α1/β1 heterodimer (Q02108 whole entry): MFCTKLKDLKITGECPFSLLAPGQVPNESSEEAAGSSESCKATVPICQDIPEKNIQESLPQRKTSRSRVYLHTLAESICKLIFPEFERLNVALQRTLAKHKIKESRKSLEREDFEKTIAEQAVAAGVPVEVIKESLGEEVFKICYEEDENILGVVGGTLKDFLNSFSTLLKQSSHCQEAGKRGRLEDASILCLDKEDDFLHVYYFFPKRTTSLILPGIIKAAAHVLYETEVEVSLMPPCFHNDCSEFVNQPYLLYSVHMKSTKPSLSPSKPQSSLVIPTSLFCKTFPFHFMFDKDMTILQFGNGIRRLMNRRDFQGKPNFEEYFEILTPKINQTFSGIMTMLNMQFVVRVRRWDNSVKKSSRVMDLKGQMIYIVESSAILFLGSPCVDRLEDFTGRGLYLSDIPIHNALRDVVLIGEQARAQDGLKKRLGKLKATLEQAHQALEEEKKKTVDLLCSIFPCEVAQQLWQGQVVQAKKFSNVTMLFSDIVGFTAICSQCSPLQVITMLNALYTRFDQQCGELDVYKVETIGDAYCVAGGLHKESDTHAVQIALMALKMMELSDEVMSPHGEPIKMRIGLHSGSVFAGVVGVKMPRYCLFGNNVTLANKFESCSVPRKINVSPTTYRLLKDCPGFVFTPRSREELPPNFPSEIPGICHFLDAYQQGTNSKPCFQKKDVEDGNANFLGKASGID
Chain of sGC α1/β1 heterodimer (Q02153 whole entry): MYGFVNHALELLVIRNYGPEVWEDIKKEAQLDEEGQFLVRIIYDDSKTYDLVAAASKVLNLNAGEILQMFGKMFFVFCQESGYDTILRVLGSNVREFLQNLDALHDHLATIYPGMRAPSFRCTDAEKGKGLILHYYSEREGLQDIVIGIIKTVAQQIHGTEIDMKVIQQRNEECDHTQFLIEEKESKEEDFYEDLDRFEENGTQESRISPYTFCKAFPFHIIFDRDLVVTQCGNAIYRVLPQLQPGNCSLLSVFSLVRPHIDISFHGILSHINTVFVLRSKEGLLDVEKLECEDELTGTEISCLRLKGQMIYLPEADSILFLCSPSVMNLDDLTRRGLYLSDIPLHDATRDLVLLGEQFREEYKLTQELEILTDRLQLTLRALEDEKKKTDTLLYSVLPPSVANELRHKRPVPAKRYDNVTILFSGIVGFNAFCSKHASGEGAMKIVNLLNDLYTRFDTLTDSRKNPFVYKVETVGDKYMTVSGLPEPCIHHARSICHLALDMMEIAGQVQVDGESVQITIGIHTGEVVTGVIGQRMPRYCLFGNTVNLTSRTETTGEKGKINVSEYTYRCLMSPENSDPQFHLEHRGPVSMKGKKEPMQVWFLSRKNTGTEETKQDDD

`CC(C)(Cc1ccc(C2(C)C(=O)Nc3nc(-c4nn(CCC(F)(F)C(F)(F)F)c5ncccc45)nc(N)c32)nc1)C(=O)O` (stereo not shown) [Example 8B, 3-(6-{4-amino-5-methyl-6-oxo-2-[1-(3,3,4,4,4-pentafluoro-butyl)-1H-pyrazolo[3,4-b]pyridin-3-yl]-6,7-dihydro-5H-pyrrolo[2,3-d]pyrimidin-5-yl}pyridin-3-yl)-2,2-dimethyl-propanoic acid]: the Emax came to 129% and the EC50 came out at 1.36 µM.

As for `CC1(c2nc(CCC(=O)O)co2)C(=O)Nc2nc(-c3nn(Cc4ccccc4F)c4cc(Cl)ccc34)nc(N)c21` (stereo not shown) [Example 50A, 3-(2-{4-amino-2-(6-chloro-1-(2-fluorobenzyl)-1H-indazol-3-yl)-5-methyl-6-oxo-6,7-dihydro-5H-pyrrolo[2,3-d]pyrimidin-5-yl}oxazol-4-yl)propanoic acid], the Emax came to 98% and the EC50 is 0.407 µM.

As for `CC(C)(Cc1coc(C2(C)C(=O)Nc3nc(-c4nn(Cc5ccccc5F)c5ccc(F)cc45)nc(N)c32)n1)C(=O)O` (stereo not shown) [Example 72A, 3-(2-{4-amino-2-[5-fluoro-1-(2-fluorobenzyl)-1H-indazol-3-yl]-5-methyl-6-oxo-6,7-dihydro-5H-pyrrolo[2,3-d]pyrimidin-5-yl}oxazol-4-yl)-2,2-dimethylpropanoic acid], the Emax turned out to be 80% and the EC50 came out at 0.042 µM.

For `CC(C)(Cc1coc(C2(C)C(=O)Nc3nc(-c4nn(Cc5ccccc5F)c5ccccc45)nc(N)c32)n1)C(=O)O` (stereo not shown) [Example 56A, 3-(2-{4-amino-2-[1-(2-fluorobenzyl)-1H-indazol-3-yl]-5-methyl-6-oxo-6,7-dihydro-5H-pyrrolo[2,3-d]pyrimidin-5-yl}oxazol-4-yl)-2,2-dimethylpropanoic acid], the Emax amounted to 116% and the EC50 was 0.134 µM.

On to `CC(C)(Cc1coc(C2(C)C(=O)Nc3nc(-c4nn(Cc5ccccc5F)c5ccc(Cl)cc45)nc(N)c32)n1)C(=O)O` (stereo not shown) [Example 74A, 3-(2-{4-amino-2-[5-chloro-1-(2-fluorobenzyl)-1H-indazol-3-yl]-5-methyl-6-oxo-6,7-dihydro-5H-pyrrolo[2,3-d]pyrimidin-5-yl}oxazol-4-yl)-2,2-dimethylpropanoic acid], for which the Emax is 94% and the EC50 stood at 0.062 µM.

In the case of `CC1(c2nc(CCC(=O)O)co2)C(=O)Nc2nc(-c3nn(Cc4ccccc4F)c4ccccc34)nc(N)c21` (stereo not shown) [Example 54A, 3-(2-{4-amino-2-[1-(2-fluorobenzyl)-1H-indazol-3-yl]-5-methyl-6-oxo-6,7-dihydro-5H-pyrrolo[2,3-d]pyrimidin-5-yl}oxazol-4-yl)propanoic acid], the Emax turned out to be 106% and the EC50 is 0.49 µM.

Turning to `CC(C)(CCc1csc(C2(C)C(=O)Nc3nc(-c4nn(Cc5ccccc5F)c5cc(Cl)ccc45)nc(N)c32)n1)C(=O)O` (stereo not shown) [Example 166A, 4-(2-{4-amino-2-[6-chloro-1-(2-fluorobenzyl)-1H-indazol-3-yl]-5-methyl-6-oxo-6,7-dihydro-5H-pyrrolo[2,3-d]pyrimidin-5-yl}-1,3-thiazol-4-yl)-2,2-dimethyl-butanoic acid], the Emax came to 86.4%.

As to `C[C@@]1(c2ccc(CCC(=O)O)cc2)C(=O)Nc2nc(-c3nn(Cc4ccccc4F)c4ccc(Cl)cc34)nc(N)c21` [Example 73B, (S)-3-(4-{4-amino-2-[5-chloro-1-(2-fluorobenzyl)-1H-indazol-3-yl]-5-methyl-6-oxo-6,7-dihydro-5H-pyrrolo[2,3-d]pyrimidin-5-yl}phenyl)propanoic acid], the Emax is 87% and the EC50 was determined as 0.085 µM.

Turning to `C[C@H](O)[C@@H](NC(=O)CCc1ccc([C@]2(C)C(=O)Nc3nc(-c4nn(Cc5ccccc5F)c5ncccc45)nc(N)c32)cc1)C(=O)O` [Example 107B, (5S)-(3-(4-{4-amino-2-[1-(2-fluorobenzyl)-1H-pyrazolo[3,4-b]pyridin-3-yl]-5-methyl-6-oxo-6,7-dihydro-5H-pyrrolo[2,3-d]pyrimidin-5-yl}phenyl)propanoyl)-D-threonine], the Emax turned out to be 113% and the EC50 came out at 0.397 µM.

Turning to `CC1(c2cn(CCC(=O)O)nn2)C(=O)Nc2nc(-c3nn(CCC(F)(F)C(F)(F)F)c4cc(Cl)ccc34)nc(N)c21` (stereo not shown) [Example 29B, 3-(4-{4-amino-2-[6-chloro-1-(3,3,4,4,4-pentafluorobutyl)-1H-indazol-3-yl]-5-methyl-6-oxo-6,7-dihydro-5H-pyrrolo[2,3-d]pyrimidin-5-yl}-1H-1,2,3-triazol-1-yl)propanoic acid], the Emax was 82%.

Take `Cc1ccc2c(-c3nc(N)c4c(n3)NC(=O)[C@@]4(C)c3nc(CC(C)(C)C(=O)O)cs3)nn(Cc3ccc(C)c(F)c3F)c2n1` [Example 75A, (S)-3-(2-{4-amino-2-[1-(2,3-difluoro-4-methylbenzyl)-6-methyl-1H-pyrazolo[3,4-b]pyridin-3-yl]-5-methyl-6-oxo-6,7-dihydro-5H-pyrrolo[2,3-d]pyrimidin-5-yl}thiazol-4-yl)-2,2-dimethylpropanoic acid]: the Emax came out at 155% and the EC50 is 0.238 µM.

Consider `CC1(c2nc(CC(=O)O)cs2)C(=O)Nc2nc(-c3nn(CCC(F)(F)C(F)(F)F)c4ncccc34)nc(N)c21` (stereo not shown) [Example 78A, (2-{4-Amino-5-methyl-6-oxo-2-[1-(3,3,4,4,4-pentafluorobutyl)-1H-pyrazolo[3,4-b]pyridin-3-yl]-6,7-dihydro-5H-pyrrolo[2,3-d]pyrimidin-5-yl}-1,3-thiazol-4-yl)acetic acid], for which the Emax stood at 93%.

Take `CC1(c2nc(CCCC(=O)O)cs2)C(=O)Nc2nc(-c3nn(Cc4ccccc4F)c4cc(Cl)ccc34)nc(N)c21` (stereo not shown) [Example 49A, 4-(2-{4-amino-2-(6-chloro-1-(2-fluorobenzyl)-1H-indazol-3-yl)-5-methyl-6-oxo-6,7-dihydro-5H-pyrrolo[2,3-d]pyrimidin-5-yl}thiazol-4-yl)butanoic acid]: the Emax came out at 91% and the EC50 was determined as 0.119 µM.

On to `C[C@@]1(c2ccc(CCC(=O)O)cc2)C(=O)Nc2nc(-c3nn(Cc4ccc(F)cc4)c4cc(Cl)ccc34)nc(N)c21` [Example 65B, (S)-3-(4-{4-amino-2-[6-chloro-1-(4-fluorobenzyl)-1H-indazol-3-yl]-5-methyl-6-oxo-6,7-dihydro-5H-pyrrolo[2,3-d]pyrimidin-5-yl}phenyl)propanoic acid], for which the Emax worked out at 136% and the EC50 stood at 1.1 µM.

Take `C[C@@]1(c2ccc(CCC(=O)O)cc2)C(=O)Nc2nc(-c3nn(Cc4ccccc4F)c4ccc(F)cc34)nc(N)c21` [Example 71B, (S)-3-(4-{4-amino-2-[5-fluoro-1-(2-fluorobenzyl)-1H-indazol-3-yl]-5-methyl-6-oxo-6,7-dihydro-5H-pyrrolo[2,3-d]pyrimidin-5-yl}phenyl)propanoic acid]: the Emax was found to be 78% and the EC50 was determined as 0.073 µM.

Consider `Cc1cccc(Cn2nc(-c3nc(N)c4c(n3)NC(=O)C4(C)c3nc(CC(C)(C)C(=O)O)co3)c3ccc(F)cc32)c1F` (stereo not shown) [Example 212A, 3-(2-{4-amino-2-[6-fluoro-1-(2-fluoro-3-methyl-benzyl)-1H-indazol-3-yl]-5-methyl-6-oxo-6,7-dihydro-5H-pyrrolo[2,3-d]pyrimidin-5-yl}-1,3-oxazol-4-yl)-2,2-dimethyl-propanoic acid], for which the Emax was found to be 135%.
